# Laboratory results published in PubChem BioAssay AID588477 (NMMLSC, 2011).
# Active and inactive are the calls of the source.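 Rule for the calls: active = valid curve fit with half-effect dose at most 10 µM and total binding change across doses of 30 points or more; inactive = the rest.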
# Experiments:
# [1] = small GTPase nucleotide-binding inhibition, multiplex panel – biochemical, round 1 SAR, Mg buffer, multiplex flow cytometry, selectivity assay for Cdc42 probe extension project, SAR follow-up (AID 588477); conditions: GST-GTPase beads, Bodipy-GTP binding, Cdc42 constitutively active
# [2] = target: Cdc42 wt; assay: as above; conditions: GST-GTPase beads, Bodipy-GTP binding
percent response (remaining binding) ([1]; at 100 µM (top of the series)),EC50 [2],EC50 [1],percent response (remaining binding) ([2]; at 100 µM (top of the series)),SMILES
inactive,7.26 µM,,,NS(=O)(=O)c1ccc(N2N=C(c3ccccc3)CC2c2ccccc2)cc1 (stereo unspecified)
,2.41 µM,3.69 µM,,COc1ccc(C2CC(c3ccccc3)=NN2c2ccc(S(N)(=O)=O)cc2)cc1 (stereo unspecified)
,,2.68 µM,inactive,O=C(C#Cc1ccccc1)c1cccc([N+](=O)[O-])c1
